US3937612A, “Dialkylphosphonoacetylurea compounds and processes for preparation and use for flameproofing” (priority 1974, dated 1976)

Assay: Water solubility (stated in words)
Format: physicochemical
Description: While stirring, 682 gm (5 mol) of chloroacetylurea were added portionwise to 831 gm (5 mol) of triethyl phosphite at a temperature of 135°C to 150°C. Each time, the addition of the next portion was delayed until the violent gas evolution had abated. After the last portion of chloracetylurea had been added, the stirring was continued at 150°Cuntil the evolution of gas was terminated. Small quantities of a volatile substance distilled off when the reaction mixture was heated on the water bath under the vacuum generated by an oil pump. The reaction mixture solidified upon cooling. […] The yield of crude product was 1120 gm (94% of the theory).

With `CCOP(=O)(CC(=O)NC(N)=O)OCC` [diethylphosphonoacetylurea, Diethylphosphonoacetylurea] the water solubility was “water-soluble”.
